Source: PubChem BioAssay AID1195 (EPA DSSTox, 2008)

System: human maximum recommended daily dose, FDA database
Assay: DSSTox (FDAMDD) FDA Maximum (Recommended) Daily Dose Database
Settings: hits give low values
In short: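 MRDD values come from clinical trials with daily oral dosing, usually for 3–12 months, for the average adult, in mg/day converted to mg/kg-bw/day assuming 60 kg. Antineoplastic mg/m2 doses are divided by 37. Activity score maps log10(1/MRDD mmol) onto 1–100.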

[1] = TherapeuticCategory: antihistaminic
[2] = TherapeuticCategory: antiarrhythmic
[3] = TherapeuticCategory: diagnostic aid
[4] = TherapeuticCategory: sedative, hypnotic
[5] = TherapeuticCategory: antiemetic
[6] = TherapeuticCategory: antibacterial
[7] = TherapeuticCategory: antipsychotic
[8] = TherapeuticCategory: glucocorticoid
[9] = TherapeuticCategory: anticholinergic
[10] = TherapeuticCategory: antihypertensive

OCCN(CCO)c1nc(-c2ccccc2)c(-c2ccccc2)o1
maximum recommended daily dose (mmol/kg-bw/day) (TherapeuticCategory: anti inflammatory): 0.0617

NC(=O)c1ccccc1O
maximum recommended daily dose (mmol/kg-bw/day) (TherapeuticCategory: analgesic): 0.316

CN1CCC[C@@H]1CCO[C@](C)(c1ccccc1)c1ccc(Cl)cc1
maximum recommended daily dose (mmol/kg-bw/day) [1]: 0.00039

O=C(Cn1c(=O)sc2ccc(Cl)cc21)N1CCN(CCO)CC1
maximum recommended daily dose (mmol/kg-bw/day) (TherapeuticCategory: antiasthmatic, anti inflammatry): 0.0141

CCC(=O)OCC(=O)[C@@]1(OC(=O)CC)[C@H](C)C[C@H]2[C@@H]3CCC4=CC(=O)C=C[C@]4(C)[C@@]3(F)[C@@H](O)C[C@@]21C
maximum recommended daily dose (mmol/kg-bw/day) (TherapeuticCategory: glucocorticoid, anti inflammatory): 0.000297

COc1ccc(C(=O)Nc2ccccc2CCC2CCCCN2C)cc1 (stereo not given)
maximum recommended daily dose (mmol/kg-bw/day) [2]: 0.00945

CC(=O)Nc1c(I)cc(I)c(C(=O)O)c1I
maximum recommended daily dose (mmol/kg-bw/day) [3]: 0.18

Clc1ccc2c(c1)C(c1ccccc1)=NCc1nncn1-2
maximum recommended daily dose (mmol/kg-bw/day) [4]: 0.000113

COc1cc(C(=O)NCc2ccc(OCCN(C)C)cc2)cc(OC)c1OC
maximum recommended daily dose (mmol/kg-bw/day) [5]: 0.043

COCC1=C(C(=O)O)N2C(=O)[C@@H](NC(=O)/C(=N\OC)c3csc(N)n3)[C@H]2SC1
maximum recommended daily dose (mmol/kg-bw/day) [6]: 0.0234

O=C(CCCN1CCC(n2c(=S)[nH]c3ccccc32)CC1)c1ccc(F)cc1
maximum recommended daily dose (mmol/kg-bw/day) [7]: 0.000503

Cc1ccc(O)c([C@H](CCN(C(C)C)C(C)C)c2ccccc2)c1
maximum recommended daily dose (mmol/kg-bw/day) (TherapeuticCategory: cholinergic (acetyl-choline) receptor blockers): 0.0246

C[C@H]1O[C@@H](O[C@H]2[C@@H](O)C[C@H](O[C@H]3[C@@H](O)C[C@H](O[C@H]4CC[C@@]5(C)[C@H](CC[C@@H]6[C@@H]5CC[C@]5(C)[C@@H](C7=CC(=O)OC7)CC[C@]65O)C4)O[C@@H]3C)O[C@@H]2C)C[C@H](O)[C@@H]1O
maximum recommended daily dose (mmol/kg-bw/day) (TherapeuticCategory: cardiotonic): 2.61e-08

CCCCC(=O)O[C@]1(C(=O)CO)[C@@H](C)C[C@H]2[C@@H]3CCC4=CC(=O)C=C[C@]4(C)[C@@]3(F)[C@@H](O)C[C@@]21C
maximum recommended daily dose (mmol/kg-bw/day) [8]: 0.000315

COc1ccc2c(c1OC)CN1CCc3cc4c(cc3C1C2)OCO4 (stereo not given)
maximum recommended daily dose (mmol/kg-bw/day) (TherapeuticCategory: Ca channel blocker): 0.0981

C[C@@H]1C[C@H]2[C@@H]3C[C@H](F)C4=CC(=O)C=C[C@]4(C)[C@H]3[C@@H](O)C[C@]2(C)[C@@]1(O)C(=O)CO
maximum recommended daily dose (mmol/kg-bw/day) [8]: 0.00102

CCOC(=O)[C@H](CCc1ccccc1)N[C@@H](C)C(=O)N1Cc2ccccc2C[C@H]1C(=O)O
maximum recommended daily dose (mmol/kg-bw/day) (TherapeuticCategory: antihypertensive, ACE inhibitor): 0.00303

C[N+]1(C)CCN(CC(O)(c2ccccc2)C2CCCCC2)CC1 (stereo not given)
maximum recommended daily dose (mmol/kg-bw/day) [9]: 0.0039

N[C@@H](CS)C(=O)O
maximum recommended daily dose (mmol/kg-bw/day) (TherapeuticCategory: none): 0.825

C#C[C@]1(O)CC[C@H]2[C@@H]3CCc4cc(O)ccc4[C@H]3CC[C@@]21C
maximum recommended daily dose (mmol/kg-bw/day) (TherapeuticCategory: estrogen): 1.69e-06

CC(CN(C)C)C(C)(O)Cc1ccc(Cl)cc1 (stereo not given)
maximum recommended daily dose (mmol/kg-bw/day) (TherapeuticCategory: antitussive): 0.0156

NC(=O)[C@@H]1CCCN1C(=O)[C@H](Cc1cnc[nH]1)NC(=O)[C@@H]1CCC(=O)N1
maximum recommended daily dose (mmol/kg-bw/day) (TherapeuticCategory: prohormone): 2.3e-05

CCc1c(C)[nH]c2c1C(=O)C(CN1CCOCC1)CC2 (stereo not given)
maximum recommended daily dose (mmol/kg-bw/day) [7]: 0.0136

COC(=O)[C@H]1[C@H]2C[C@@H]3c4[nH]c5cc(OC)ccc5c4CCN3C[C@H]2C[C@@H](OC(=O)c2cc(OC)c(OC)c(OC)c2)[C@@H]1OC
maximum recommended daily dose (mmol/kg-bw/day) [10]: 1.64e-05

CCC(=O)OC(OP(=O)(CCCCc1ccccc1)CC(=O)N1C[C@H](C2CCCCC2)C[C@H]1C(=O)O)C(C)C (stereo not given in full)
maximum recommended daily dose (mmol/kg-bw/day) [10]: 0.00236

COC(=O)[C@H](c1ccccc1Cl)N1CCc2sccc2C1
maximum recommended daily dose (mmol/kg-bw/day) (TherapeuticCategory: antithrombotic): 0.00388

NC(=O)c1cccnc1
maximum recommended daily dose (mmol/kg-bw/day) (TherapeuticCategory: vitamin): 0.0682

CCC(C)C(C(=O)OC1CCN(C)CC1)c1ccccc1 (stereo not given)
maximum recommended daily dose (mmol/kg-bw/day) [9]: 0.00173

CC1CCC(C(C)C)C(O)C1 (stereo not given)
maximum recommended daily dose (mmol/kg-bw/day) (TherapeuticCategory: topical antipruritic): 0.0128

CC(=O)[C@H]1CC[C@H]2[C@@H]3CC[C@H]4C[C@H](O)CC[C@]4(C)[C@H]3C(=O)C[C@]12C
maximum recommended daily dose (mmol/kg-bw/day) (TherapeuticCategory: anesthetic): 0.00203

O=C(Cn1cnnn1)N[C@@H]1C(=O)N2C(C(=O)O)=C(CSc3nncs3)CS[C@H]12
maximum recommended daily dose (mmol/kg-bw/day) [6]: 0.151

CC(=O)[C@H]1CC[C@H]2[C@@H]3C=CC4=CC(=O)CC[C@@]4(C)[C@@H]3CC[C@]12C
maximum recommended daily dose (mmol/kg-bw/day) (TherapeuticCategory: progestogen): 0.0016

CC[N+]1(C)CCCC(OC(=O)C(O)(c2ccccc2)c2ccccc2)C1 (stereo not given)
maximum recommended daily dose (mmol/kg-bw/day) [9]: 0.000576

CCOc1c(N2CCOCC2)cnn(C)c1=O
maximum recommended daily dose (mmol/kg-bw/day) (TherapeuticCategory: analgesic, anti inflammatory): 0.0139

N#CC(CCN1CCC(C(=O)O)(c2ccccc2)CC1)(c1ccccc1)c1ccccc1
maximum recommended daily dose (mmol/kg-bw/day) (TherapeuticCategory: antiperistaltic, antidiarrheal): 0.000313

CCOC(=O)CCCCCCCCC(C)c1cccc(I)c1 (stereo not given)
maximum recommended daily dose (mmol/kg-bw/day) [3]: 0.3

O=C1Nc2ccc(Cl)cc2C(c2ccccc2)=NC1O (stereo not given)
maximum recommended daily dose (mmol/kg-bw/day) (TherapeuticCategory: anxiolytic): 0.00698

CO/N=C(\C(=O)N[C@@H]1C(=O)N2C(C(=O)O)=C(CSc3nnnn3C)CS[C@H]12)c1csc(N)n1
maximum recommended daily dose (mmol/kg-bw/day) [6]: 0.13

NCCc1cnc[nH]1
maximum recommended daily dose (mmol/kg-bw/day) (TherapeuticCategory: gastrointestinal): 0.00013

C[C@]12CC[C@@H]3c4ccc(OS(=O)(=O)O)cc4CC[C@H]3[C@@H]1CCC2=O
maximum recommended daily dose (mmol/kg-bw/day) (TherapeuticCategory: estrogen): 0.000107

C/C=C\C1=C(C(=O)O)N2C(=O)[C@@H](NC(=O)[C@H](N)c3ccc(O)cc3)[C@H]2SC1
maximum recommended daily dose (mmol/kg-bw/day) [6]: 0.0429

CC(=O)O[C@H]1C[C@@H]2CC[C@@H]3[C@H](CC[C@@]4(C)[C@H]3C[C@H](N3CC[N+](C)(C)CC3)[C@@H]4OC(C)=O)[C@@]2(C)C[C@@H]1N1CC[N+](C)(C)CC1
maximum recommended daily dose (mmol/kg-bw/day) (TherapeuticCategory: skeletal muscle relaxant): 0.000118

C[C@H]1C[C@@H]2[C@H]([C@@H](O)C[C@@]3(C)[C@H]2CC[C@]3(O)C(=O)COC(=O)CCC(=O)O)[C@@]2(C)C=CC(=O)C=C12
maximum recommended daily dose (mmol/kg-bw/day) [8]: 0.0084

CCCCOc1ccc(C[N+]2(C)[C@@H]3CC[C@H]2CC(OC(=O)[C@H](CO)c2ccccc2)C3)cc1 (stereo not given in full)
maximum recommended daily dose (mmol/kg-bw/day) (TherapeuticCategory: antispasmotic, anticholinergic): 0.000915

CN1CCN(CC(=O)N2c3ccccc3C(=O)Nc3cccnc32)CC1
maximum recommended daily dose (mmol/kg-bw/day) (TherapeuticCategory: antiulcerative): 0.00711

CC(=O)O[C@]1(C(C)=O)CC[C@H]2[C@@H]3C=C(Cl)C4=CC(=O)CC[C@]4(C)[C@H]3CC[C@@]21C
maximum recommended daily dose (mmol/kg-bw/day) (TherapeuticCategory: progestogen, antineoplastic): 8.22e-05

CC[C@H](C)[C@H]1O[C@]2(CC[C@@H]1C)C[C@@H]1C[C@@H](C/C=C(\C)[C@@H](O[C@H]3C[C@H](OC)[C@@H](O[C@H]4C[C@H](OC)[C@@H](O)[C@H](C)O4)[C@H](C)O3)[C@@H](C)/C=C/C=C3\CO[C@@H]4[C@H](O)C(C)=C[C@@H](C(=O)O1)[C@]34O)O2
maximum recommended daily dose (mmol/kg-bw/day) (TherapeuticCategory: anthelmintic): 0.000171

NNc1nncc2ccccc12
maximum recommended daily dose (mmol/kg-bw/day) [10]: 0.0208

CC(C)(C(=O)c1cccnc1)c1cccnc1
maximum recommended daily dose (mmol/kg-bw/day) [3]: 0.331

Cc1nc(NS(=O)(=O)c2ccc(N)cc2)oc1C
maximum recommended daily dose (mmol/kg-bw/day) [6]: 0.125

COc1ccc(OC)c(C(O)C(C)N)c1 (stereo not given)
maximum recommended daily dose (mmol/kg-bw/day) (TherapeuticCategory: adrenergic): 0.00158

Cc1cccc(CN2CCN(C(c3ccccc3)c3ccc(Cl)cc3)CC2)c1 (stereo not given)
maximum recommended daily dose (mmol/kg-bw/day) [5]: 0.00427

CC(=O)OCC(=O)[C@@]1(O)CC[C@H]2[C@@H]3CCC4=CC(=O)CC[C@]4(C)[C@H]3C(=O)C[C@@]21C
maximum recommended daily dose (mmol/kg-bw/day) [8]: 0.0124

C[C@](N)(Cc1ccc(O)c(O)c1)C(=O)O
maximum recommended daily dose (mmol/kg-bw/day) [10]: 0.158

CC(C)COCC(CN(Cc1ccccc1)c1ccccc1)N1CCCC1 (stereo not given)
maximum recommended daily dose (mmol/kg-bw/day) (TherapeuticCategory: antianginal): 0.0182

Nc1ccn([C@H]2CC[C@@H](CO)O2)c(=O)n1
maximum recommended daily dose (mmol/kg-bw/day) (TherapeuticCategory: antiviral): 0.000178

CC(C)(C)NCC(O)c1cc(Cl)c(N)c(Cl)c1 (stereo not given)
maximum recommended daily dose (mmol/kg-bw/day) (TherapeuticCategory: antiasthmatic): 3.61e-06

C=CCN1C[C@H](C(=O)N(CCCN(C)C)C(=O)NCC)C[C@@H]2c3cccc4[nH]cc(c34)C[C@H]21
maximum recommended daily dose (mmol/kg-bw/day) (TherapeuticCategory: antidyskinetic, prolactin inhibitor, antiparkinsonian, dopamine receptor antagonist): 4.43e-05

CN1C(=O)NC(=O)C(C)(C2=CCCCC2)C1=O (stereo not given)
maximum recommended daily dose (mmol/kg-bw/day) (TherapeuticCategory: sedative, hypnotic, anesthetic): 0.0353

C=CCC1(CC(C)C)C(=O)NC(=O)NC1=O
maximum recommended daily dose (mmol/kg-bw/day) [4]: 0.0223

C[C@]12C=CC(=O)C=C1CC[C@@H]1[C@@H]2CC[C@]2(C)OC(=O)CC[C@@H]12
maximum recommended daily dose (mmol/kg-bw/day) (TherapeuticCategory: antineoplastic): 0.0139

c1ccc2c(c1)Sc1ccccc1N2CC1CN2CCC1CC2 (stereo not given)
maximum recommended daily dose (mmol/kg-bw/day) [1]: 0.000518

CCC(Cc1c(I)cc(I)c(N)c1I)C(=O)O (stereo not given)
maximum recommended daily dose (mmol/kg-bw/day) [3]: 0.175

CO/N=C(\C(=O)N[C@@H]1C(=O)N2C(C(=O)O)=C(CSc3nc(=O)c(=O)[nH]n3C)CS[C@H]12)c1csc(N)n1
maximum recommended daily dose (mmol/kg-bw/day) [6]: 0.12

CC(=O)NCc1c(I)c(NC(C)=O)c(I)c(C(=O)O)c1I
maximum recommended daily dose (mmol/kg-bw/day) [3]: 0.159

CCCCC[C@H](O)/C=C/[C@@H]1[C@H]2C/C(=C/CCCC(=O)O)O[C@H]2C[C@H]1O
maximum recommended daily dose (mmol/kg-bw/day) (TherapeuticCategory: platelet aggregation inhibitor): 2.84e-08

OCc1cc(C(O)CNCCCCCCOCCCCc2ccccc2)ccc1O (stereo not given)
maximum recommended daily dose (mmol/kg-bw/day) (TherapeuticCategory: bronchodilator): 3.37e-06

CCN(CC)CCNC(=O)c1ccc(N)cc1
maximum recommended daily dose (mmol/kg-bw/day) [2]: 0.212

O=C1OC(c2ccc(O)c(S(=O)(=O)O)c2)(c2ccc(O)c(S(=O)(=O)O)c2)c2c(Br)c(Br)c(Br)c(Br)c21
maximum recommended daily dose (mmol/kg-bw/day) [3]: 0.00597

CCC(C)C(C)(COC(N)=O)COC(N)=O (stereo not given)
maximum recommended daily dose (mmol/kg-bw/day) [10]: 0.0861
